Experimental data from ChEMBL document CHEMBL4725439, “Direct Comparison of (N)-Methanocarba and Ribose-Containing 2-Arylalkynyladenosine Derivatives as A Receptor Agonists” (ACS Med Chem Lett, 2020).
Each block holds one molecule with its values, some of them ahead of it. The source made the active and inactive calls. No cut-off for these calls is given here.

Tests used:
[1] = target: Beta-3 adrenergic receptor (Homo sapiens) (UniProt P13945); test: Displacement of [125I]-Pindolol from human beta3 adrenergic receptor expressed in expressed in HEK Flp-In cells measured after 90 mins by microbeta scintillation counting method; assay type: cell-based
Sequence of Beta-3 adrenergic receptor (Homo sapiens) (P13945 whole entry, looked up): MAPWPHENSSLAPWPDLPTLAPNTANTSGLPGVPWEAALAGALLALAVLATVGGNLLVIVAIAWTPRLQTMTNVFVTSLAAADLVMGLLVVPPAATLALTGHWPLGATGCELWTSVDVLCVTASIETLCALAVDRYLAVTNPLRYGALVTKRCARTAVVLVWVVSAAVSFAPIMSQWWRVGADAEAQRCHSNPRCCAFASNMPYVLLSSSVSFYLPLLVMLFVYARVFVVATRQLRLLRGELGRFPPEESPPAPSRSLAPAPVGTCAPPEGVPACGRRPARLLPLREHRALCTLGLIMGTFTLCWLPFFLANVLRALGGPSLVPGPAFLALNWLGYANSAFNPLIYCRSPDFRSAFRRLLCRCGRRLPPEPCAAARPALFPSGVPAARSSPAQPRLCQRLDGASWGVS

Adenosine receptor A3 [2] = target: T1, Adenosine receptor A3 (Homo sapiens, UniProt P0DMS8); test: Displacement of [125I]N6-(4-amino-3-iodobenzyl)adenosine-5'-N-methyluronamide from human […] expressed in CHO cell membranes assessed as inhibitor constant by radio ligand binding assay
T1 sequence (P0DMS8 whole entry): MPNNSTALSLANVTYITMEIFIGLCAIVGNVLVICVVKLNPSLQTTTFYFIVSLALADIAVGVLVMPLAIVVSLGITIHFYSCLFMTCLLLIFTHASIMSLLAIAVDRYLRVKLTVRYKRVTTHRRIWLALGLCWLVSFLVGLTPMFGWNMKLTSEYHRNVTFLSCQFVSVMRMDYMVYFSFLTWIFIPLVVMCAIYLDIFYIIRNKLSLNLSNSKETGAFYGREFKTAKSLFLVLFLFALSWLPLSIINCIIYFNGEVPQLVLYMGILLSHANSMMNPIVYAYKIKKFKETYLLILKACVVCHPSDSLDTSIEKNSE

Adenosine receptor A3 [3] = target: T2, Adenosine receptor A3 (Mus musculus, UniProt Q61618); test: Displacement of [125I]AB-MECA from mouse […] expressed in HEK293 cell membranes assessed as inhibitor constant by radio ligand binding assay
T2 sequence (Q61618 whole entry): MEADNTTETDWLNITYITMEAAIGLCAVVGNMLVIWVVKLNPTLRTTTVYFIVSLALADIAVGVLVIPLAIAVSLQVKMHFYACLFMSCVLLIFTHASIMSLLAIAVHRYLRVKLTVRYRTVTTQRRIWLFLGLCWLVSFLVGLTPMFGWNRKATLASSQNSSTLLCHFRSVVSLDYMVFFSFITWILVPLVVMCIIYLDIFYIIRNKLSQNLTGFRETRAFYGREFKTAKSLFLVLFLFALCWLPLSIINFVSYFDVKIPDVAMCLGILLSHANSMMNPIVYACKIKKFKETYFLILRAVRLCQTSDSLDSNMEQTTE

Adenosine receptor A2a [4] = target: T3, Adenosine receptor A2a (Homo sapiens, UniProt P29274); test: Displacement of [3H]2-[p-(2-carboxyethyl)phenyl-ethylamino]-5'-N-ethylcarboxamidoadenosine from human A2A receptor expressed in HEK293 cells at 10 uM by radio ligand binding assay relative to control; assay type: cell-based
T3 sequence (P29274 whole entry): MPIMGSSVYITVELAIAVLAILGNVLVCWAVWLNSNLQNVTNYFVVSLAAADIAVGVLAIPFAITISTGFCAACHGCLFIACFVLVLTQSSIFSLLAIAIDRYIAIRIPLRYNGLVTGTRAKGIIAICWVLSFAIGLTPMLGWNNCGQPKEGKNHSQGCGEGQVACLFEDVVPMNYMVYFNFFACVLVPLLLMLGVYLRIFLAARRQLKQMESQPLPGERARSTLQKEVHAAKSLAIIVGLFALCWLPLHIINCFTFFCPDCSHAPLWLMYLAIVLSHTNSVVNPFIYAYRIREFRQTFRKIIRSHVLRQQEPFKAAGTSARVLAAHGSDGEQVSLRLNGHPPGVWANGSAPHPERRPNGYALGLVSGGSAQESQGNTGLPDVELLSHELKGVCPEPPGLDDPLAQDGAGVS

[5] = target: T4, Adenosine receptor A1 (Homo sapiens) (UniProt P30542); test: Displacement of [3H]N6-R-phenylisopropyladenosine from human A1AR expressed in HEK293 cells at 10 uM by radio ligand binding assay relative to control; assay type: cell-based
T4 sequence (whole entry): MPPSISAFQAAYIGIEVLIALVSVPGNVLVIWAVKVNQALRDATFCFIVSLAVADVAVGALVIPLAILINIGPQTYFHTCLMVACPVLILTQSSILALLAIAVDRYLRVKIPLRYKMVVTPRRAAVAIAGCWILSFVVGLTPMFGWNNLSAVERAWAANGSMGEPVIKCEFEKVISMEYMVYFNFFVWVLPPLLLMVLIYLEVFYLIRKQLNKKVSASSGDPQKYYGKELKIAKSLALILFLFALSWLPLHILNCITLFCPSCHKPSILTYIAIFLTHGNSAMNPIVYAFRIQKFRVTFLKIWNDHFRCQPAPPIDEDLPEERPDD

[6] = target: T5, Adenosine receptor A1 (Mus musculus) (UniProt Q60612); test: Displacement of [125I]AB-MECA from recombinant mouse A1AR expressed in HEK293 cells at 10 uM by radio ligand binding assay relative to control; assay type: cell-based; details: filed as agonist
T5 sequence (whole entry): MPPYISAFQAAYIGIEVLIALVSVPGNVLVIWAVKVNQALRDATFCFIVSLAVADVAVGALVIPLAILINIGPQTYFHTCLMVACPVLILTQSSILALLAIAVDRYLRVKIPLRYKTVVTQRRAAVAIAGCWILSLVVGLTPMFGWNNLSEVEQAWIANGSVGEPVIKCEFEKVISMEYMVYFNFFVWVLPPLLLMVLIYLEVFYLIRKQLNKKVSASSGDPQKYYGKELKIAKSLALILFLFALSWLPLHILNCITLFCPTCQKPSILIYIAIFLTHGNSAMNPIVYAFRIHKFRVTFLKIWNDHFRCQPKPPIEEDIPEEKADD

[7] = target: Adenosine receptor A2a (Mus musculus) (UniProt Q60613); test: Displacement of [3H]CGS21680 from mouse A2A receptor expressed in HEK293 cells at 10 uM by radio ligand binding assay relative to control; assay type: cell-based
Sequence of Adenosine receptor A2a (Mus musculus) (Q60613 whole entry): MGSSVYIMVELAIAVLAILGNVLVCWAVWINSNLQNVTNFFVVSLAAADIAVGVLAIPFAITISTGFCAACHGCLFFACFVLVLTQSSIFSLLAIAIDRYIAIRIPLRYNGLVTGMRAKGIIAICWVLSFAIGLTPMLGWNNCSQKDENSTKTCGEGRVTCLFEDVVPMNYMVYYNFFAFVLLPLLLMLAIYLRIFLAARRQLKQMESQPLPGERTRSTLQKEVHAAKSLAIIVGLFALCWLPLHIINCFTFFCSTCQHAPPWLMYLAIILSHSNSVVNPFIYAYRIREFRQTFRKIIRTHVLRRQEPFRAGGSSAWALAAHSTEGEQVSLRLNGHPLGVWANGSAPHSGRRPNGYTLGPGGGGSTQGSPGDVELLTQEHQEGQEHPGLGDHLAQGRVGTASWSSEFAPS

[8] = target: 5-hydroxytryptamine receptor 2B (Homo sapiens, UniProt P41595); test: Displacement of [3H]-LSD from recombinant human 5HT2B receptor expressed in stable HEK cells after 90 mins by microbeta scintillation counting method; assay type: cell-based
Sequence of 5-hydroxytryptamine receptor 2B (P41595 whole entry): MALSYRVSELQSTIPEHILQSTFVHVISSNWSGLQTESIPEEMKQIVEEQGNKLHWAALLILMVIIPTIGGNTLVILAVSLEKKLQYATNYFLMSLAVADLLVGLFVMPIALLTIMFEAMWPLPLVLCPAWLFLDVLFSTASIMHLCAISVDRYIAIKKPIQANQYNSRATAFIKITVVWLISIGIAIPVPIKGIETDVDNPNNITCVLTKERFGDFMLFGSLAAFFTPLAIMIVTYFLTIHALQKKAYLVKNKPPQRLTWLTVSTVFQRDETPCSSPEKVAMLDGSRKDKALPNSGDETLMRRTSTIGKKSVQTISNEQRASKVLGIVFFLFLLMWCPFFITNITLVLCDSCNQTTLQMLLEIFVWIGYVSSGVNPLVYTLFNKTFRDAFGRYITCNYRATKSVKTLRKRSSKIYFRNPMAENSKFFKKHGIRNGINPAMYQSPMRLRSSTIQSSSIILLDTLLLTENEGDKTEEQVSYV

[9] = target: Sodium-dependent dopamine transporter (Homo sapiens, UniProt Q01959); test: Displacement of [3H]-Win35428 from human recombinant DAT receptor expressed in stable HEK cells after 90 mins by microbeta scintillation counting method; assay type: cell-based
Sequence of Sodium-dependent dopamine transporter (Q01959 whole entry): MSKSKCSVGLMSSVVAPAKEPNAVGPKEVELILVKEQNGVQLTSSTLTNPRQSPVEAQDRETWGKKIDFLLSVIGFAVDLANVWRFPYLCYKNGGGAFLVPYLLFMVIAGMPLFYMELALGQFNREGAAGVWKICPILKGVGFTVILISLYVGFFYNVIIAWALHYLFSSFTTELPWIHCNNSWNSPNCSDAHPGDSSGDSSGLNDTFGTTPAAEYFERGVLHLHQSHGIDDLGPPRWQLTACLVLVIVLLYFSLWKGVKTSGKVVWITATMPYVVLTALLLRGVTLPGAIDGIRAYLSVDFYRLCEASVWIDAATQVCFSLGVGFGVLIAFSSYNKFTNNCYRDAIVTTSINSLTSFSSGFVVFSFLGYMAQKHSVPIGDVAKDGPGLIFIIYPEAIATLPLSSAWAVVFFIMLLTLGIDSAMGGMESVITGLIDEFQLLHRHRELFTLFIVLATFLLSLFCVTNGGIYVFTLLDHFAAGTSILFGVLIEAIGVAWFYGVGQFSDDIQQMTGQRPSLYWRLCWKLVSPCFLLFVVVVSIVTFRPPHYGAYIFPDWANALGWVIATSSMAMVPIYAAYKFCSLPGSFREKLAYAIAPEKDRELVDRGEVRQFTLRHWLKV

Adenosine receptor A1 [10] = target: T6, Adenosine receptor A1 (Homo sapiens, UniProt P30542); test: Displacement of [3H]N6-R-phenylisopropyladenosine from human A1AR receptor expressed in HEK293 cells assessed as inhibitory constant by radio ligand binding assay; assay type: cell-based
T6 sequence (P30542 whole entry): T4 sequence (whole entry)

Adenosine receptor A1 [11] = target: T7, Adenosine receptor A1 (Mus musculus, UniProt Q60612); test: Displacement of [125I]AB-MECA from recombinant mouse A1AR expressed in HEK293 cells assessed as inhibitory constant by radio ligand binding assay; assay type: cell-based
T7 sequence (Q60612 whole entry): T5 sequence (whole entry)

Adenosine receptor A2a [12] = target: T3, Adenosine receptor A2a; test: Displacement of [3H]2-[p-(2-carboxyethyl)phenyl-ethylamino]-5'-N-ethylcarboxamidoadenosine from human A2A receptor expressed in HEK293 cells assessed as inhibitor constant by radio ligand binding assay; assay type: cell-based
[13] = Stability in Sprague-Dawley rat plasma; assay type: ADME, cell-free
[14] = Stability in Sprague-Dawley rat liver microsomes; assay type: ADME, Microsome
HepG2 = test: Cytotoxicity against human HepG2 cells; assay type: cell-based
[15] = Oral bioavailability in Sprague-Dawley rat; assay type: ADME, organism-based; details: in vivo
[16] = target: T8, Adenosine receptor A2b (Homo sapiens) (UniProt P29275); test: Agonist activity at Gs-coupled human A2B […] receptor expressed in CHO at 10 uM by cAMP based assay; assay type: functional, cell-based
T8 sequence (whole entry): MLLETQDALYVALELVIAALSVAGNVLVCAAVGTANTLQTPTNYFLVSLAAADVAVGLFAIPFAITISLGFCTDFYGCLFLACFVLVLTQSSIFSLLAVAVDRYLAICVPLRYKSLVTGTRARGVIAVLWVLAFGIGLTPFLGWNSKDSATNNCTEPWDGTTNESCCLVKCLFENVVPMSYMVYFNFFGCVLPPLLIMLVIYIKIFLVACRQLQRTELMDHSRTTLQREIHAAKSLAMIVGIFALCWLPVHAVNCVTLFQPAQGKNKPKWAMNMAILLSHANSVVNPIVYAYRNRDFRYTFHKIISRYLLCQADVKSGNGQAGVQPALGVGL

Adenosine receptor A3 [17] = target: T1, Adenosine receptor A3; test: Binding affinity to human A3AR assessed as inhibitor constant

SMILES: CNC(=O)[C@@]12C[C@@H]1[C@@H](n1cnc3c(NC)cc(C#Cc4ccc(Cl)s4)nc31)[C@H](O)[C@@H]2O
Activity [1]: Active

SMILES: CCNc1cc(C#Cc2ccc(F)s2)nc2c1ncn2[C@H]1[C@H](O)[C@H](O)[C@]2(C(=O)NC)C[C@H]12
Ki (Adenosine receptor A3 [2]): 2.78 nM
Activity [1]: Active
Ki (Adenosine receptor A3 [3]): 25 nM
inhibition (Adenosine receptor A2a [4]; filed as agonist): 61%
inhibition [5]: 31%
inhibition [6]: 53%
inhibition [7]: 4%

SMILES: CCCNc1cc(C#Cc2ccc(Cl)s2)nc2c1ncn2[C@H]1[C@H](O)[C@H](O)[C@]2(C(=O)NC)C[C@H]12
Ki [8]: 760 nM
Ki [9]: 3940 nM

SMILES: CNc1nc(C#Cc2ccc(Cl)s2)nc2c1ncn2[C@@H]1O[C@H](C(=O)OC)[C@@H](O)[C@H]1O
inhibition (Adenosine receptor A2a [4]): 8%
inhibition ([5]; filed as agonist): 46%
inhibition [6]: 53%
inhibition [7]: 12%

SMILES: CCNc1nc(C#Cc2ccc(Cl)s2)nc2c1ncn2[C@H]1[C@H](O)[C@H](O)[C@]2(C(=O)NC)C[C@H]12
Stabilty [13]: Stable
Stabilty [14]: Stable
Activity (HepG2): Non-Toxic
bioavailability [15]: 14%

SMILES: CCCNc1nc(C#Cc2ccc(F)s2)nc2c1ncn2[C@H]1[C@H](O)[C@H](O)[C@]2(C(=O)NC)C[C@H]12
Stabilty [13]: Stable
Ki (Adenosine receptor A3 [2]): 1.13 nM
Stabilty [14]: Stable
Activity (HepG2): Non-Toxic
Ki (Adenosine receptor A1 [10]): 3980 nM
Ki (Adenosine receptor A3 [3]): 10.6 nM
Ki (Adenosine receptor A2a [12]): 838 nM
bioavailability [15]: 14%

SMILES: CNC(=O)[C@@]12C[C@@H]1[C@@H](n1cnc3c(NC)cc(C#Cc4ccc(F)s4)nc31)[C@H](O)[C@@H]2O
Ki (Adenosine receptor A3 [2]): 0.896 nM
Activity [1]: Active
Ki (Adenosine receptor A3 [3]): 37 nM
inhibition (Adenosine receptor A2a [4]; filed as agonist): 56%
inhibition [5]: 20%
inhibition [6]: 51%
inhibition [7]: 6%

SMILES: CNC(=O)[C@@]12C[C@@H]1[C@@H](n1cnc3c(NC)nc(C#Cc4ccc(Cl)s4)nc31)[C@H](O)[C@@H]2O
Stabilty [13]: Stable
Stabilty [14]: Stable
Activity (HepG2): Non-Toxic
Activity [16]: inactive
bioavailability [15]: 14%

SMILES: CCCNc1nc(C#Cc2ccc(Cl)s2)nc2c1ncn2[C@@H]1O[C@H](C(=O)NC)[C@@H](O)[C@H]1O
Ki (Adenosine receptor A1 [11]): 315 nM
Ki (Adenosine receptor A1 [10]): 1160 nM
inhibition (Adenosine receptor A2a [4]; filed as agonist): 49%

SMILES: CCNc1cc(C#Cc2ccc(Cl)s2)nc2c1ncn2[C@H]1[C@H](O)[C@H](O)[C@]2(C(=O)NC)C[C@H]12
Stabilty [13]: Stable
Stabilty [14]: Stable
Activity [1]: Active
Activity (HepG2): Non-Toxic
bioavailability [15]: 14%

SMILES: CNC(=O)[C@H]1O[C@@H](n2cnc3c(NC)cc(C#Cc4ccc(F)s4)nc32)[C@H](O)[C@@H]1O
Ki (Adenosine receptor A3 [2]): 26.6 nM
Ki (Adenosine receptor A3 [3]): 1200 nM
inhibition (Adenosine receptor A2a [4]): 15%
inhibition ([5]; filed as agonist): 47%

More lines, main results first:

Ki (Adenosine receptor A3 [2]): 2.3 nM
Ki (Adenosine receptor A1 [10]): 432 nM
Ki (Adenosine receptor A3 [3]): 1510 nM
inhibition (Adenosine receptor A2a [4]; filed as agonist): 45%
SMILES: CNC(=O)[C@H]1O[C@@H](n2cnc3c(NC)nc(C#Cc4ccc(F)s4)nc32)[C@H](O)[C@@H]1O

Ki (Adenosine receptor A1 [11]): 4170 nM
inhibition (Adenosine receptor A2a [4]): 7%
inhibition ([5]; filed as agonist): 58%
SMILES: CNC(=O)[C@H]1O[C@@H](n2cnc3c(NC)nc(C#Cc4ccc(Cl)s4)nc32)[C@H](O)[C@@H]1O

Ki (Adenosine receptor A3 [2]): 8.51 nM
Ki (Adenosine receptor A1 [10]): 369 nM
Ki (Adenosine receptor A3 [3]): 435 nM
Ki (Adenosine receptor A2a [12]): 2460 nM
SMILES: CCCNc1nc(C#Cc2ccc(F)s2)nc2c1ncn2[C@@H]1O[C@H](C(=O)NC)[C@@H](O)[C@H]1O

inhibition (Adenosine receptor A2a [4]): 20%
inhibition [5]: 24%
SMILES: CNc1nc(C#Cc2ccc(Cl)s2)nc2c1ncn2[C@H]1[C@H](O)[C@H](O)[C@]2(C(=O)OC)C[C@H]12

Ki (Adenosine receptor A3 [17]): 0.75 nM
SMILES: CCNC(=O)[C@H]1O[C@@H](n2cnc3c(NC)nc(C#C[C@@H](O)c4ccccc4)nc32)[C@H](O)[C@@H]1O

inhibition (Adenosine receptor A2a [4]): 18%
inhibition [5]: 17%
inhibition [6]: 54%
inhibition [7]: 5%
SMILES: CCOC(=O)[C@@]12C[C@@H]1[C@@H](n1cnc3c(NC)cc(C#Cc4ccc(Cl)s4)nc31)[C@H](O)[C@@H]2O

Ki (Adenosine receptor A3 [2]): 10.4 nM
Ki (Adenosine receptor A1 [11]): 864 nM
Ki (Adenosine receptor A1 [10]): 1670 nM
Ki (Adenosine receptor A3 [3]): 625 nM
inhibition (Adenosine receptor A2a [4]): 27%
SMILES: CCOC(=O)[C@@]12C[C@@H]1[C@@H](n1cnc3c(NC)nc(C#Cc4ccc(F)s4)nc31)[C@H](O)[C@@H]2O

Activity [1]: Active
SMILES: CCCNc1nc(C#Cc2ccc(Cl)s2)nc2c1ncn2[C@H]1[C@H](O)[C@H](O)[C@]2(C(=O)NC)C[C@H]12

Stabilty [13]: Stable
Ki (Adenosine receptor A3 [2]): 0.28 nM
Stabilty [14]: Stable
Ki (Adenosine receptor A1 [11]): 3260 nM
Ki (Adenosine receptor A3 [3]): 85 nM
Ki (Adenosine receptor A2a [12]): 4620 nM
inhibition [5]: 33%
bioavailability [15]: 14%
inhibition [7]: 5%
SMILES: CNC(=O)[C@@]12C[C@@H]1[C@@H](n1cnc3c(NC)nc(C#Cc4ccc(F)s4)nc31)[C@H](O)[C@@H]2O
Activity (HepG2): Non-Toxic
